One assay concerns the target human orexin-1 receptor (Homo sapiens (Human), UniProt O43613). Kind of assay: In vitro assay: intracellular calcium measurements (FLIPR), antagonistic activity. The note with it: CHO cells expressing human orexin-1 receptor, orexin-A agonist, geometric mean, read-out: IC50 Ox1. The class given is cell-based. In a few lines:
(§1)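 Dye-loaded CHO cells expressing either human orexin receptor are exposed to test antagonist for 120 min, then stimulated with orexin-A at 3 nM.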

Another assay deals with human orexin-2 receptor (Homo sapiens (Human), UniProt O43614). The assay is described as above. The class given is cell-based. The note with it: CHO cells expressing human orexin-2 receptor, orexin-A agonist, geometric mean, read-out: IC50 Ox2. In outline: as §1
human orexin-2 receptor, sequence (O43614 whole entry): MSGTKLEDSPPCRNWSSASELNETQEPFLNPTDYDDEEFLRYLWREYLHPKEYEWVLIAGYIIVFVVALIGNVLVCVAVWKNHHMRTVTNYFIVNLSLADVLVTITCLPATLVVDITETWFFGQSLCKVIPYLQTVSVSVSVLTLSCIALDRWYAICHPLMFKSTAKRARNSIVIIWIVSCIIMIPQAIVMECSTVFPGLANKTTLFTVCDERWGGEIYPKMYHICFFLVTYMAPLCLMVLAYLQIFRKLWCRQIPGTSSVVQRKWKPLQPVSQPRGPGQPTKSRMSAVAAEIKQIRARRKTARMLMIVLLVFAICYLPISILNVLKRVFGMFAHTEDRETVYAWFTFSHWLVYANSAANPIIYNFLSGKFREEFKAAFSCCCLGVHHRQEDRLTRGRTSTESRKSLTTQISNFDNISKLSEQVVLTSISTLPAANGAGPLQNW

human orexin-1 receptor, sequence (O43613 whole entry): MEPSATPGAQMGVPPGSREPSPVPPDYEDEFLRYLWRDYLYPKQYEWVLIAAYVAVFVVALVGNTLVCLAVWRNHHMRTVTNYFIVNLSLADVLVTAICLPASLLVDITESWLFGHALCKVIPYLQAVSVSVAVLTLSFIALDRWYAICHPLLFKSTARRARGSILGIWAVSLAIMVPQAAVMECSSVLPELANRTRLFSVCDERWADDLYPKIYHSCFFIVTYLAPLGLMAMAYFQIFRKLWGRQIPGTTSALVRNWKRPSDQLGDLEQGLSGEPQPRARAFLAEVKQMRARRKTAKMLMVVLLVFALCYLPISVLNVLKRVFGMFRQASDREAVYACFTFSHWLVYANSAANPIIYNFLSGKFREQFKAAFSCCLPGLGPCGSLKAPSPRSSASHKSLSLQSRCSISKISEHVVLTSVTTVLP

Regarding `Cc1c(Cl)ccc2nc([C@]3(C)CCCN3C(=O)c3cc(F)ccc3-c3ccccn3)[nH]c12` [Ex. 5.219], the IC50 turned out to be 19 nM at human orexin-1 receptor and 72 nM on human orexin-2 receptor.
For `Cc1c(Cl)ccc2nc([C@]3(C)CCCN3C(=O)c3cc(F)ccc3-c3cccnc3)[nH]c12` [Ex. 5.220], in that order: 98 nM and 249 nM.
The matching figures for `Cc1c(Cl)ccc2[nH]c([C@]3(C)CCCN3C(=O)c3c(F)cccc3-c3ccccn3)nc12` [Ex. 5.221]: 19 nM and 83 nM.
The matching figures for `Cc1c(Cl)ccc2[nH]c([C@]3(C)CCCN3C(=O)c3c(F)cccc3-c3ncccn3)nc12` [Ex. 5.222]: 26 nM and 68 nM.
For `Cc1ccc(-c2ccccc2)c(C(=O)N2CCC[C@@]2(C)c2nc3c(C)c(Cl)ccc3[nH]2)c1` [Ex. 5.223], the half-maximal inhibitory concentration (IC50) worked out at 3 nM on human orexin-1 receptor and 12 nM on human orexin-2 receptor.
For `Cc1c(Cl)ccc2[nH]c([C@]3(C)CCCN3C(=O)c3cc(F)ccc3-c3ncccn3)nc12` [Ex. 5.224], in that order: 7 nM and 21 nM.
For `Cc1c(Cl)ccc2nc([C@]3(C)CCCN3C(=O)c3c(F)cccc3-c3ccccc3)[nH]c12` [Ex. 5.225], in that order: 16 nM and 44 nM.
As to `Cc1c(Cl)ccc2nc([C@]3(C)CCCN3C(=O)c3nc(-c4ccccc4)sc3-c3ccc(F)cc3)[nH]c12` [Ex. 5.226], the IC50 was 7 nM at human orexin-1 receptor and 155 nM on human orexin-2 receptor.
With `Cc1c(Cl)ccc2[nH]c([C@]3(C)CCCN3C(=O)c3nc(-c4ccc(F)cc4)sc3-c3ccc(F)cc3)nc12` [Ex. 5.227], the IC50 on human orexin-1 receptor stood at 20 nM; on human orexin-2 receptor, 521 nM.
The matching figures for `Cc1ccccc1-c1nc(C(=O)N2CCC[C@@]2(C)c2nc3c(C)c(Cl)ccc3[nH]2)c(-c2ccc(F)cc2)s1` [Ex. 5.228]: 56 nM and 2030 nM.
The matching figures for `COc1ccccc1-c1nc(C(=O)N2CCC[C@@]2(C)c2nc3c(C)c(Cl)ccc3[nH]2)c(-c2ccc(F)cc2)s1` [Ex. 5.229]: 54 nM and 858 nM.
On to `Cc1cccc(-c2nc(C(=O)N3CCC[C@@]3(C)c3nc4c(C)c(Cl)ccc4[nH]3)c(-c3ccc(F)cc3)s2)c1` [Ex. 5.230], for which the IC50 at human orexin-1 receptor worked out at 21 nM; at human orexin-2 receptor, 530 nM.
The matching figures for `COc1cccc(-c2nc(C(=O)N3CCC[C@@]3(C)c3nc4ccc(Cl)c(C)c4[nH]3)c(-c3ccc(F)cc3)s2)c1` [Ex. 5.231]: 15 nM and 135 nM.
As to `Cc1ccc(-c2nc(C(=O)N3CCC[C@@]3(C)c3nc4c(C)c(Cl)ccc4[nH]3)c(-c3ccc(F)cc3)s2)cc1` [Ex. 5.232], the figures for the IC50 on human orexin-1 receptor and at human orexin-2 receptor were 20 nM and 2060 nM, respectively.
The matching figures for `Cc1c(Cl)ccc2[nH]c([C@]3(C)CCCN3C(=O)c3nc(-c4ccccc4F)sc3-c3ccc(F)cc3)nc12` [Ex. 5.233]: 5 nM and 263 nM.
The matching figures for `Cc1c(Cl)ccc2[nH]c([C@]3(C)CCCN3C(=O)c3nc(-c4cccc(F)c4)sc3-c3ccc(F)cc3)nc12` [Ex. 5.234]: 8 nM and 131 nM.
For `Cc1cc(C(=O)N2CCC[C@@]2(C)c2nc3cc(OC(F)(F)F)ccc3[nH]2)c(-n2nccn2)cc1C` [Ex. 5.235], in that order: 5 nM and 16.5 nM.
Turning to `Cc1ccc(-c2ccccc2)c(C(=O)N2CCC[C@@]2(C)c2nc3cc(OC(F)(F)F)ccc3[nH]2)c1` [Ex. 5.236], the figures for the IC50 at human orexin-1 receptor and at human orexin-2 receptor were 26 nM and 173 nM, respectively.
The matching figures for `COc1ccc(-n2nccn2)c(C(=O)N2CCC[C@@]2(C)c2nc3cc(OC(F)(F)F)ccc3[nH]2)c1` [Ex. 5.237]: 58 nM and 223 nM.
The matching figures for `Cc1ccc(C(=O)N2CCC[C@@]2(C)c2nc3cc(OC(F)(F)F)ccc3[nH]2)c(-n2nccn2)c1` [Ex. 5.238]: 23 nM and 91 nM.
The matching figures for `Cc1ccc(-c2ccccn2)c(C(=O)N2CCC[C@@]2(C)c2nc3cc(OC(F)(F)F)ccc3[nH]2)c1` [Ex. 5.239]: 35 nM and 594 nM.
For the molecule `Cc1ccc(C(=O)N2CCC[C@@]2(C)c2nc3cc(OC(F)(F)F)ccc3[nH]2)c(-c2ccccn2)c1` [Ex. 5.240], the values for the IC50 on human orexin-1 receptor and at human orexin-2 receptor were 38 nM and 232 nM, respectively.
`Cc1ccc(C(=O)N2CCC[C@@]2(C)c2nc3cc(OC(F)(F)F)ccc3[nH]2)c(-c2cccnc2)c1` [Ex. 5.241]: the IC50 on human orexin-1 receptor came to 54 nM; at human orexin-2 receptor it was 1000 nM.
The matching figures for `Cc1ccc(C(=O)N2CCC[C@@]2(C)c2nc3cc(OC(F)(F)F)ccc3[nH]2)c(-c2ccccc2)c1` [Ex. 5.242]: 56 nM and 401 nM.
The matching figures for `Cc1nc(C(=O)N2CCC[C@@]2(C)c2nc3cc(OC(F)(F)F)ccc3[nH]2)c(-c2ccccc2C)s1` [Ex. 5.243]: 88 nM and 1120 nM.
Consider `Cc1nc(C(=O)N2CCC[C@@]2(C)c2nc3cc(OC(F)(F)F)ccc3[nH]2)c(-c2cccc(Cl)c2Cl)s1` [Ex. 5.244], for which the IC50 on human orexin-1 receptor came out at 62 nM; at human orexin-2 receptor it was 641 nM.
For `Cc1nc(C(=O)N2CCC[C@@]2(C)c2nc3cc(OC(F)(F)F)ccc3[nH]2)c(-c2ccc(C)c(C)c2)s1` [Ex. 5.245], in that order: 14 nM and 80 nM.
On to `Cc1nc(C(=O)N2CCC[C@@]2(C)c2nc3cc(OC(F)(F)F)ccc3[nH]2)c(-c2cc(F)cc(F)c2)s1` [Ex. 5.246], for which the values for the IC50 at human orexin-1 receptor and on human orexin-2 receptor were 28 nM and 533 nM, respectively.
The matching figures for `COc1cccc(-c2sc(C)nc2C(=O)N2CCC[C@@]2(C)c2nc3cc(OC(F)(F)F)ccc3[nH]2)c1` [Ex. 5.247]: 10 nM and 136 nM.
The matching figures for `Cc1nc(C(=O)N2CCC[C@@]2(C)c2nc3cc(OC(F)(F)F)ccc3[nH]2)c(-c2ccc(F)cc2)s1` [Ex. 5.248]: 22 nM and 494 nM.
As for `COc1cccc(C#Cc2ccccc2C(=O)N2CCC[C@@]2(C)c2nc3c(C)cc(Br)cc3[nH]2)c1` [Ex. 5.249], the figures for the IC50 on human orexin-1 receptor and at human orexin-2 receptor were 38 nM and 53 nM, respectively.
For the molecule `COc1cccc(C#Cc2ccccc2C(=O)N2CCC[C@@]2(C)c2nc3cc(C(F)(F)F)ccc3[nH]2)c1` [Ex. 5.250], the figures for the IC50 on human orexin-1 receptor and on human orexin-2 receptor were 184 nM and 992 nM, respectively.
For `Cc1c(Cl)ccc2[nH]c([C@]3(C)CCCN3C(=O)c3nc(-c4cccc(F)c4F)sc3-c3ccc(F)cc3)nc12` [Ex. 5.251], in that order: 13 nM and 774 nM.
In the case of `Cc1cc(-c2nc(C(=O)N3CCC[C@@]3(C)c3nc4c(C)c(Cl)ccc4[nH]3)c(-c3ccc(F)cc3)s2)ccc1F` [Ex. 5.252], the IC50 on human orexin-1 receptor was 20 nM; at human orexin-2 receptor, 1640 nM.
The matching figures for `Cc1ccc(-c2nc(C(=O)N3CCC[C@@]3(C)c3nc4c(C)c(Cl)ccc4[nH]3)c(-c3ccc(F)cc3)s2)c(F)c1` [Ex. 5.253]: 12 nM and 1190 nM.
The matching figures for `Cc1ccc(-c2nc(C(=O)N3CCC[C@@]3(C)c3nc4c(C)c(Cl)ccc4[nH]3)c(-c3ccc(F)cc3)s2)cc1C` [Ex. 5.254]: 39 nM and 9270 nM.
The matching figures for `Cc1c(Cl)ccc2[nH]c([C@]3(C)CCCN3C(=O)c3nc(-c4cccc(C#N)c4)sc3-c3ccc(F)cc3)nc12` [Ex. 5.255]: 1 nM and 145 nM.
As for `Cc1c(Cl)ccc2[nH]c([C@]3(C)CCCN3C(=O)c3nc(-c4ccccc4Cl)sc3-c3ccc(F)cc3)nc12` [Ex. 5.256], the 50% inhibitory concentration (IC50) is 13 nM on human orexin-1 receptor and 402 nM at human orexin-2 receptor.
`Cc1c(Cl)ccc2[nH]c([C@]3(C)CCCN3C(=O)c3nc(-c4cccc(Cl)c4)sc3-c3ccc(F)cc3)nc12` [Ex. 5.257]: the IC50 on human orexin-1 receptor came to 13 nM; at human orexin-2 receptor, 329 nM.
For `Cc1ccc(-c2nc(C(=O)N3CCC[C@@]3(C)c3nc4c(C)c(Cl)ccc4[nH]3)c(-c3ccc(F)cc3)s2)cc1Cl` [Ex. 5.258], in that order: 36 nM and 6520 nM.
The matching figures for `Cc1cc(F)ccc1-c1nc(C(=O)N2CCC[C@@]2(C)c2nc3c(C)c(Cl)ccc3[nH]2)c(-c2ccc(F)cc2)s1` [Ex. 5.259]: 29 nM and 4660 nM.
For `COc1cc(F)ccc1-c1nc(C(=O)N2CCC[C@@]2(C)c2nc3c(C)c(Cl)ccc3[nH]2)c(-c2ccc(F)cc2)s1` [Ex. 5.260], in that order: 20 nM and 2870 nM.
As for `Cc1c(Cl)ccc2[nH]c([C@]3(C)CCCN3C(=O)c3nc(-c4cc(F)ccc4F)sc3-c3ccc(F)cc3)nc12` [Ex. 5.261], the IC50 was 4 nM at human orexin-1 receptor and 466 nM at human orexin-2 receptor.
For `C[C@@]1(c2nc3cc(C(F)(F)F)ccc3[nH]2)CCCN1C(=O)c1cc(Br)ccc1-c1ccccc1` [Ex. 5.262], in that order: 113 nM and 1 nM.
The matching figures for `Cc1cc(C(=O)N2CCC[C@@]2(C)c2nc3c(C)c(Cl)ccc3[nH]2)c(-n2nccn2)cn1` [Ex. 5.263]: 56 nM and 304 nM.
For `Cc1cc(C(=O)N2CCC[C@@]2(C)c2nc3c(C)c(Cl)ccc3[nH]2)c(-c2ccccc2)cn1` [Ex. 5.264], in that order: 25 nM and 65 nM.
As for `C[C@@]1(c2nc3cc(C(F)(F)F)ccc3[nH]2)CCCN1C(=O)c1cc(-c2cccnc2)ccc1-c1ccccc1` [Ex. 5.265], the IC50 at human orexin-1 receptor is 9 nM; on human orexin-2 receptor, 32 nM.
For `Cc1ccc(-n2nccn2)c(C(=O)N2CCC[C@@]2(C)c2nc3c(C)c(C)c(Br)cc3[nH]2)c1` [Ex. 5.266], in that order: 1 nM and 1 nM.
With `Cc1ccc(C(=O)N2CCC[C@@]2(C)c2nc3c(C)c(C)c(Br)cc3[nH]2)c(-n2nccn2)c1C` [Ex. 5.267], the IC50 on human orexin-1 receptor was 12 nM; on human orexin-2 receptor, 105 nM.

In general, IC50 refers to the point on the concentration scale where inhibition reaches its midpoint.
